pKi: −log10 of the molar value.
How the values were obtained:
Carboxypeptidase A = molecular target: T1, Carboxypeptidase A (Bos taurus, UniProt P00730); assay: Carboxypeptidase A activity assay; type: biochemical; conditions: Ki class; compounds tested in 5% DMSO, 12 concentrations
T1 sequence (P00730 111-419): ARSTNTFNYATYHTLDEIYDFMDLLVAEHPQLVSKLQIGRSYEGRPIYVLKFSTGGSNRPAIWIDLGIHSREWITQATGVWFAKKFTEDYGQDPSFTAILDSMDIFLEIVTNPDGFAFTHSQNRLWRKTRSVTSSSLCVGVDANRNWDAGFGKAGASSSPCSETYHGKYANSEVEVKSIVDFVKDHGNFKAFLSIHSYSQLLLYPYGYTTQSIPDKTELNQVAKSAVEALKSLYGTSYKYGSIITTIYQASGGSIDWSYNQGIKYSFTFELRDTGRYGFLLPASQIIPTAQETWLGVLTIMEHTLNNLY
Outline: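 Bovine carboxypeptidase A activity followed at 328 nm in 5% DMSO, reaction stopped with EDTA. Activity measured at 12 compound concentrations. Ki derived from apparent Ki as Ki=Kiapp/(1+[S]/Km).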

ACE-2 [1] = molecular target: T2, ACE-2 (Homo sapiens, UniProt Q9BYF1); assay: ACE-2 Competitive Substrate Assay (ACS Assay); type: biochemical; conditions: Ki class; compounds tested in 5% DMSO, 12 concentrations; read-out: Human ACE-2 Activity
T2 construct: a stop codon inserted after the serine immediately preceding the transmembrane domain; made in house; host or cells: CHO K1 cells (transient transfection, purified from conditioned medium)
T2 sequence (Q9BYF1 18-740 limits assumed): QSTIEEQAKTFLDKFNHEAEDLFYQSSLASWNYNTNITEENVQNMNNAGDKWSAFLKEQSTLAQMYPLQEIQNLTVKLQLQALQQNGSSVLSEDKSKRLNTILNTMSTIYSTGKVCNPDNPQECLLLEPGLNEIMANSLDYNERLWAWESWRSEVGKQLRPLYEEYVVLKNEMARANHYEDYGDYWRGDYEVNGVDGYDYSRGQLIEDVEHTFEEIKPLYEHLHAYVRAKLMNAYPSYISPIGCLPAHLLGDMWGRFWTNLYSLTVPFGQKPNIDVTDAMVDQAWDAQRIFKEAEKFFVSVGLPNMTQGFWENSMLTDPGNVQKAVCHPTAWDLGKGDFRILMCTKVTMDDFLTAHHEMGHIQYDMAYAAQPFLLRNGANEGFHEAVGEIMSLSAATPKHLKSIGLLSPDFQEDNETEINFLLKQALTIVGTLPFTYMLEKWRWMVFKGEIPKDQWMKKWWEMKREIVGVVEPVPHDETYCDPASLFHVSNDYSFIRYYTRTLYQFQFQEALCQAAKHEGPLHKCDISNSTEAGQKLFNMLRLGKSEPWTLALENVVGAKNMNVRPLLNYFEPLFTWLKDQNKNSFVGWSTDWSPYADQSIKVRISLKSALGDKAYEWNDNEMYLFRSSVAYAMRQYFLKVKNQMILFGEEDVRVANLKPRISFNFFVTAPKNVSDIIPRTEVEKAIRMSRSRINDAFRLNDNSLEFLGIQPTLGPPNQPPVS

ACE (Sigma, A2580) = molecular target: T3, ACE (Sigma, A2580) (Sus scrofa, UniProt F1RRW5); assay: ACE enzymatic activity assay; type: biochemical, porcine; conditions: Ki class; compounds tested in 5% DMSO, 12 concentrations
T3 construct: ACE from porcine kidney; purchased Sigma A2580; host or cells: porcine kidney
T3 sequence (F1RRW5 34-1309): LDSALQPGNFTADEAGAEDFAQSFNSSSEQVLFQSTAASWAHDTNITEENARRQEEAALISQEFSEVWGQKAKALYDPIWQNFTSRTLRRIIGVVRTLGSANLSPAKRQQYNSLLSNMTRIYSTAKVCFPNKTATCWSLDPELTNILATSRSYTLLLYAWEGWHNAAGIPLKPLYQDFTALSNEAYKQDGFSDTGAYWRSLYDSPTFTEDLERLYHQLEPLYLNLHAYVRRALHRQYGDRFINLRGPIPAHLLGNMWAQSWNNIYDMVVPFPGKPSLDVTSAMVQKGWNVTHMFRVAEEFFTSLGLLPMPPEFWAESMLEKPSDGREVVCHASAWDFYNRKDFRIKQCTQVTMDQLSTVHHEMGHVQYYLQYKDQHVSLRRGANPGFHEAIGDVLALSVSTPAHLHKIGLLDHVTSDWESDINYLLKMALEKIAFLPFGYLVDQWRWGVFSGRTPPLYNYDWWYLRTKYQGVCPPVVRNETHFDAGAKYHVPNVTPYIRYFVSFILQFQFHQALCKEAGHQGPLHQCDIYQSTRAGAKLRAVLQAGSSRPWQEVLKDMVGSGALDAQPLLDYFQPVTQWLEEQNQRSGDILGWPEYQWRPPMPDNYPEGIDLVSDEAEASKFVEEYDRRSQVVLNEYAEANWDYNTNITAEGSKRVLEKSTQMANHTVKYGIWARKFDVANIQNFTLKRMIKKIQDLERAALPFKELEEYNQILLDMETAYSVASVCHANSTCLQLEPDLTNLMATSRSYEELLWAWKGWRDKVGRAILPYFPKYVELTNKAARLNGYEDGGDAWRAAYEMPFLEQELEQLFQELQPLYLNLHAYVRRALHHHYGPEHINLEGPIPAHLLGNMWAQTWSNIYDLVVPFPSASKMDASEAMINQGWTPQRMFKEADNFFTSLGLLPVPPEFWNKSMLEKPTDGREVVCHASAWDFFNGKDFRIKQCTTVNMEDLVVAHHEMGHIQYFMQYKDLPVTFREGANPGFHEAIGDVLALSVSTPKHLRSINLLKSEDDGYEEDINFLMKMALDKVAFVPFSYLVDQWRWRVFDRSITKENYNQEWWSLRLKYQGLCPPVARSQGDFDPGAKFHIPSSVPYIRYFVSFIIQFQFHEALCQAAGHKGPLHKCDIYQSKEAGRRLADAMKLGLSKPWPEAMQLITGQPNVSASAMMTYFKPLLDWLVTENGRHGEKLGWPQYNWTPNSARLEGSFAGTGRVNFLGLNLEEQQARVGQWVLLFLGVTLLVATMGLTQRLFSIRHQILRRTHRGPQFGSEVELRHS
Outline: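 ACE (1 nM final) in 50 mM HEPES, 300 mM NaCl, 0.01% Brij-35, pH 7.5, with compound in 5% DMSO at 12 concentrations, 25 °C. Substrate cleavage run ~30 min, stopped with EDTA; fluorescence read at excitation 320 nm, emission 405 nm.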

ACE-2 [2] = molecular target: ACE-2 (Rattus norvegicus, UniProt Q5EGZ1); assay: ACE-2 Competitive Substrate Assay, rat ACE-2; type: biochemical; conditions: Ki class; compounds tested in 5% DMSO, 12 concentrations
Chain of ACE-2 (Rattus norvegicus, UniProt Q5EGZ1) (Q5EGZ1 18-805): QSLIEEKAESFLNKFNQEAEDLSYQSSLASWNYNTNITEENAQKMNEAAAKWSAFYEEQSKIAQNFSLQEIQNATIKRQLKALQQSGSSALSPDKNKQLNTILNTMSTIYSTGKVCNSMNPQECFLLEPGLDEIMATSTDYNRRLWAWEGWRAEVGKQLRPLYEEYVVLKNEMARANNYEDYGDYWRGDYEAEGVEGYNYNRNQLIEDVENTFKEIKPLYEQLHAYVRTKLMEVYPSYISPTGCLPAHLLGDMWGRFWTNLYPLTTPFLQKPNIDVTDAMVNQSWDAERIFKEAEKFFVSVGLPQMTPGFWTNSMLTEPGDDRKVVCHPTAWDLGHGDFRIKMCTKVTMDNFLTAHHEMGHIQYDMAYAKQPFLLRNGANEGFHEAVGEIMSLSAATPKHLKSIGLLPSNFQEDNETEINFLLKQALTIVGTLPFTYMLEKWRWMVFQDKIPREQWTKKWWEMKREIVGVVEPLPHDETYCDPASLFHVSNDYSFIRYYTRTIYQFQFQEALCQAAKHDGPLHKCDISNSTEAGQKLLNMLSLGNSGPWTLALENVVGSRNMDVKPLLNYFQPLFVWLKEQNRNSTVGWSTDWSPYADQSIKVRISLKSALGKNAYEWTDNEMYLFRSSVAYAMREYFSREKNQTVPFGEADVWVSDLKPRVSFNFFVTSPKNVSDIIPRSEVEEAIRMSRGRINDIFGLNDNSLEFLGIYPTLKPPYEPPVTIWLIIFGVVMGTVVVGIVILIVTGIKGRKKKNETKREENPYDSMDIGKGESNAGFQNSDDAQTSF

## CCCC(N[C@H](Cc1c[nH]cn1)C(=O)O)C(=O)O (stereo partly shown) [BC, 2-[1-Carboxy-2-(1H-imidazol-4-yl)-ethylamino]pentanoic-acid]
Carboxypeptidase A
  pKi: < 4.30
ACE-2 [1]
  pKi: < 6.30
ACE (Sigma, A2580)
  pKi: 4.30 to 5.00
ACE-2 [2]
  pKi: < 6.30

## CC(N[C@H](Cc1c[nH]cn1)C(=O)O)C(=O)O (stereo partly shown) [BD, 2-(1-carboxy-ethylamino)-3-(1H-imidazol-4-yl)-propionic acid]
Carboxypeptidase A
  pKi: < 4.30
ACE-2 [1]
  pKi: < 6.30
ACE (Sigma, A2580)
  pKi: < 4.30
ACE-2 [2]
  pKi: < 6.30

## CC(C)CC(NC(Cc1ccccn1)C(=O)O)C(=O)O (stereo not shown) [BF, 2-(1-Carboxy-2-pyridin-2-yl-ethylamino)-4-methyl-pentanoic acid]
Carboxypeptidase A
  pKi: < 4.30
ACE-2 [1]
  pKi: < 6.30
ACE (Sigma, A2580)
  pKi: < 4.30
ACE-2 [2]
  pKi: 6.30 to 7.00

## COc1ccc(C(N[C@@H](CC(C)C)C(=O)O)C(=O)O)cc1 (stereo partly shown) [BQ, 2-[(Carboxy-(4-methoxy-phenyl)-methyl]-amino]-4-methyl-pentanoic acid]
Carboxypeptidase A
  pKi: < 4.30
ACE-2 [1]
  pKi: < 6.30
ACE (Sigma, A2580)
  pKi: < 4.30
ACE-2 [2]
  pKi: < 6.30

## CC(C)C[C@H](NC(C(=O)O)c1ccc2ccccc2c1)C(=O)O (stereo partly shown) [BR, 2-[(Carboxy-naphthalen-2-yl-methyl)-amino]-4-methyl-pentanoic acid]
Carboxypeptidase A
  pKi: < 4.30
ACE-2 [1]
  pKi: < 6.30
ACE (Sigma, A2580)
  pKi: < 4.30
ACE-2 [2]
  pKi: < 6.30

## CC(C)C[C@@H](N[C@H](C(=O)O)c1ccccc1)C(=O)O [BS, 2-[(Carboxy-phenyl-methyl)-amino]-4-methyl-pentanoic acid]
Carboxypeptidase A
  pKi: < 4.30
ACE-2 [1]
  pKi: < 6.30
ACE (Sigma, A2580)
  pKi: < 4.30
ACE-2 [2]
  pKi: < 6.30

## CC(C)C[C@@H](N[C@@H](C(=O)O)c1ccccc1)C(=O)O [BT, 2-[(Carboxy-phenyl-methyl)-amino]-4-methyl-pentanoic acid]
Carboxypeptidase A
  pKi: < 4.30
ACE-2 [1]
  pKi: < 6.30
ACE (Sigma, A2580)
  pKi: < 4.30
ACE-2 [2]
  pKi: < 6.30

## NCCCC[C@H](NC(CCc1ccccc1)C(=O)O)C(=O)O (stereo partly shown) [BU, 6-Amino-2-(1-carboxy-3-phenyl-propylamino)-hexanoic acid]
Carboxypeptidase A
  pKi: < 4.30
ACE-2 [1]
  pKi: < 6.30
ACE (Sigma, A2580)
  pKi: < 4.30
ACE-2 [2]
  pKi: < 6.30

## CC(C)CC(N[C@@H](Cc1cn(Cc2ccccc2)cn1)C(=O)O)C(=O)O (stereo partly shown) [BV, 2-[2-(1-Benzyl-1H-imidazol-4-yl)-1-carboxy-ethylamino]-4-methyl-pentanoic acid]
Carboxypeptidase A
  pKi: > 5.00
ACE-2 [1]
  pKi: < 6.30
ACE (Sigma, A2580)
  pKi: 4.30 to 5.00
ACE-2 [2]
  pKi: < 6.30

## CC(C)C[C@H](N[C@@H](Cc1ccccc1)C(=O)O)C(=O)O [BW, 2-(1-Carboxy-2-phenyl-ethylamino)-4-methyl-pentanoic acid]
Carboxypeptidase A
  pKi: 4.30 to 5.00
ACE-2 [1]
  pKi: < 6.30
ACE (Sigma, A2580)
  pKi: < 4.30
ACE-2 [2]
  pKi: 6.30 to 7.00

## CC(C)CC(N[C@H](Cc1cn(C)cn1)C(=O)O)C(=O)O (stereo partly shown) [CA, 2-[-Carboxy-2-(1-methyl-1H-imidazol-4-yl)-ethylamino]-4-methyl-pentanoic acid]
Carboxypeptidase A
  pKi: < 4.30
ACE-2 [1]
  pKi: < 6.30
ACE (Sigma, A2580)
  pKi: < 4.30
ACE-2 [2]
  pKi: < 6.30

## CC(C)CC(N[C@H](Cc1cncn1C)C(=O)O)C(=O)O (stereo partly shown) [CB, 2-[1-Carboxy-2-(3-methyl-3H-imidazol-4-yl)-ethylamino]-4-methyl-pentanoic acid]
Carboxypeptidase A
  pKi: < 4.30
ACE-2 [1]
  pKi: < 6.30
ACE (Sigma, A2580)
  pKi: < 4.30
ACE-2 [2]
  pKi: < 6.30

## CC(C)CC(N[C@H](Cc1cccnc1)C(=O)O)C(=O)O (stereo partly shown) [CC, 2-(1-Carboxy-2-pyridin-3-yl-ethylamino)-4-methyl-pentanoic acid]
Carboxypeptidase A
  pKi: < 4.30
ACE-2 [1]
  pKi: < 6.30
ACE (Sigma, A2580)
  pKi: < 4.30
ACE-2 [2]
  pKi: < 6.30
